Reference: patent US12276654B2, “Chemical probe-dependent evaluation of protein activity and uses thereof” (The University of Chicago, priority 2017, dated 2025)

Legend:
NCEH1 [1] = target: T1, NCEH1 (Mus musculus, UniProt Q8BLF1); experiment: sADPL in vivo target engagement in mPBMCs after oral gavage, NCEH1; conditions: mice
T1 construct: Then the mPBMCs were acquired from the mouse blood and subjected to family wide probe treatment; from tissue; host or cells: mouse blood PBMCs (mPBMCs)
T1 sequence (Q8BLF1 1-408): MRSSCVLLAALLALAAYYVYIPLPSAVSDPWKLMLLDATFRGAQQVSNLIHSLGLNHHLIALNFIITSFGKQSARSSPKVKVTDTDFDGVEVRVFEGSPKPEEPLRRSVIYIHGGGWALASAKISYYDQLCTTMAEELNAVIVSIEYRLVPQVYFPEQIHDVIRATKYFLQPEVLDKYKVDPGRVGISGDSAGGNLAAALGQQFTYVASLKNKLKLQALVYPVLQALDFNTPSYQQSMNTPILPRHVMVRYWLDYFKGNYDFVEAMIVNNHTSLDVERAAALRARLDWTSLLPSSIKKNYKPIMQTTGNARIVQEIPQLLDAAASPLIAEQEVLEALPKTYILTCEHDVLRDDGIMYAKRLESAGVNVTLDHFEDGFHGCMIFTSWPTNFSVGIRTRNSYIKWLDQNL
Excerpt: (§1) FIG. 25. In vivo Target Engagement. The mice were administrated with vehicle (PEG300) or NCEH1 inhibitor JW480 by oral gavage. Then the mPBMCs were acquired from the mouse blood and subjected to family wide probe treatment to profile the in vivo target engagement.
(§2) Following the in vitro study, in vivo target engagement was planned. In this experiment, the inventors orally gavaged the mice with vehicle or inhibitors, then collected the mPBMCs for probe treatment and sADPL measurement. Again, first the activity of NCEH1 was tested in mice PBMCs, and good activity was found. The delta Ct is over 7 cycles, which is over 100 fold change.

FAAH = target: T2, FAAH (Mus musculus, UniProt O08914); experiment: sADPL in vivo target engagement in mPBMCs after oral gavage, off-target FAAH; conditions: mice, 3 and 80 mg/kg
T2 construct: Then the mPBMCs were acquired from the mouse blood and subjected to family wide probe treatment; from tissue; host or cells: mouse blood PBMCs (mPBMCs)
T2 sequence (O08914 1-579): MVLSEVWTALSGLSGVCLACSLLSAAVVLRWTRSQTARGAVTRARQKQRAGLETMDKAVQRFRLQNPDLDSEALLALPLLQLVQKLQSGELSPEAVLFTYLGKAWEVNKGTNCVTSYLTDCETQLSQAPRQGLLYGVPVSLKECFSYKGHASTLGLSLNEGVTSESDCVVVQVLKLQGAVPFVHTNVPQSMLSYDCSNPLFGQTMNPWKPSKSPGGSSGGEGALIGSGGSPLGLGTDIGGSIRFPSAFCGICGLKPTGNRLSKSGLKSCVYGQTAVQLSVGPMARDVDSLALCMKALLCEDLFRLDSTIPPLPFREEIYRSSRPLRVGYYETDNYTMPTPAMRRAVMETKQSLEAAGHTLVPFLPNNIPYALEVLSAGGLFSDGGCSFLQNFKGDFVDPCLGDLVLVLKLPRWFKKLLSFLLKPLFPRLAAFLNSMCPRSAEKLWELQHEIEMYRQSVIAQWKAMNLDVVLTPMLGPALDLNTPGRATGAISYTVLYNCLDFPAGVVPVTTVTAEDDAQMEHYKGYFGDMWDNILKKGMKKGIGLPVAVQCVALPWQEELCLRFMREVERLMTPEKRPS
Excerpt: as §1, §2

MGLL = target: T3, MGLL (Mus musculus, UniProt O35678); experiment: sADPL in vivo target engagement in mPBMCs after oral gavage, off-target MGLL; conditions: mice, 3 and 80 mg/kg
T3 construct: Then the mPBMCs were acquired from the mouse blood and subjected to family wide probe treatment; from tissue; host or cells: mouse blood PBMCs (mPBMCs)
T3 sequence (O35678 1-303): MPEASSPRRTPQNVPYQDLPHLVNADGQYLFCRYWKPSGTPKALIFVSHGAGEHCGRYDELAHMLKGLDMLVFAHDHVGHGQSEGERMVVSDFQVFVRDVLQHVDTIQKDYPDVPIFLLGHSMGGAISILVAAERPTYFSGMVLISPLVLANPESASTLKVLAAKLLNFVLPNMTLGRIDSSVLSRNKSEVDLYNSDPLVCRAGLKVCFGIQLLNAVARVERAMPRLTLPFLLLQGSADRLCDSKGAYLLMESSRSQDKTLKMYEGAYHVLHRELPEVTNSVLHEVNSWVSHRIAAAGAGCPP
Excerpt: as §1, §2

NCEH1 [2] = target: T4, NCEH1 (Homo sapiens, UniProt Q6PIU2); experiment: sADPL target engagement in patient-derived hPBMCs; format: cell-based; parameters: The human peripheral blood mononuclear cells (hPBMCs) were extracted from patient-derived blood samples; endogenous in cells; host or cells: primary human PBMCs from patient blood; conditions: hPBMCs from patient-derived blood; inhibitor prior to family-wide probe
T4 sequence (Q6PIU2 1-408): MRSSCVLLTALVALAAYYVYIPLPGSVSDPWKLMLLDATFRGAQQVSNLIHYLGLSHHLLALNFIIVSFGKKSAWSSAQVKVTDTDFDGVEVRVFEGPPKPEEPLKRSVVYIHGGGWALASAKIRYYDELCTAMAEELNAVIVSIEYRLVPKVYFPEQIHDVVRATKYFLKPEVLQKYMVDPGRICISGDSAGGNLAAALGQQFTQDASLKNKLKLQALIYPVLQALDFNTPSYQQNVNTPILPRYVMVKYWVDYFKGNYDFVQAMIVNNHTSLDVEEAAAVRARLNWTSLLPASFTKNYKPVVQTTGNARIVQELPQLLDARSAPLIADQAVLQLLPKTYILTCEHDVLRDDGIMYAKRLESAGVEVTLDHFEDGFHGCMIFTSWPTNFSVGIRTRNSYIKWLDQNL
Procedure: FIG. 24. Target Engagement in Patient-derived PBMCs. The human peripheral blood mononuclear cells (hPBMCs) were extracted from patient-derived blood samples. Likewise, hPBMCs were treated with DMSO as the control, with inhibitor prior to family wide probe to pre-block the active site, or with family-wide probe directly. Then sADPL workflow was applied to read out the CT difference.

NCEH1 [3] = target: T4, NCEH1; parameters: endogenous NCEH1 activity in SKOV3 cells; endogenous in cells; host or cells: SKOV3; wild-type PC3; PAFAH2-expressing PC3; conditions: previously reported; PC3 cells; read-out: IC50 for NCEH1 previously reported by gel-based profiling; cited from earlier work

SMILES: CC(C)c1ccccc1OC(=O)NCCc1ccc2ccccc2c1 [JW480]
- NCEH1 activity in mPBMCs (raw Ct values) (NCEH1 [1]; 3 mg/kg (partial inhibition) vs vehicle PEG300): lower activity
- NCEH1 activity in mPBMCs (raw Ct values) (NCEH1 [1]; 80 mg/kg (complete inhibition) vs vehicle PEG300): even lower activity
- in vivo target engagement of off-target FAAH in mPBMCs (FAAH): no target engagements were observed
- in vivo target engagement of off-target MGLL in mPBMCs (MGLL): no target engagements were observed
- activity in inhibitor competition group by sADPL in hPBMCs (NCEH1 [2]): bring the activities down to the levels of DMSO controls
- IC50 (NCEH1 [3]): 12 nM
